The source made the active and inactive calls. No cut-off for these calls is given here.
Assays:
[1] = Cytotoxicity against human HEp-2 cells assessed as reduction in cell viability measured after 60 hrs by MTT assay; assay type: cell-based
[2] = system: Respiratory syncytial virus; test: Antiviral activity against Respiratory syncytial virus infected in human HEp-2 cells incubated for 60 hrs by MTT assay; assay type: functional, organism-based; conditions: HEp-2, 60 h
[3] = system: Respiratory syncytial virus; test: Antiviral activity against RSV infected in BALB/c mouse assessed as downregulation of IL-10 expression in lung tissue infected with RSV at 50 mg/kg/day measured after 2 to 6 days post infection by RT-PCR analysis; assay type: functional, organism-based; conditions: time 2-6 day
[4] = Selectivity index, ratio of CC50 for human HEp-2 cells to EC50 for Respiratory syncytial virus infected in human HEp-2 cells; assay type: toxicity, cell-based; conditions: read-out: Selectivity Index
[5] = system: Respiratory syncytial virus; test: Antiviral activity against RSV infected in BALB/c mouse assessed as downregulation of IL-6 expression in lung tissue infected with RSV at 50 mg/kg/day measured after 2 days post infection by RT-PCR analysis; assay type: functional, organism-based; conditions: time 2.0 day
[6] = system: Respiratory syncytial virus; test: Antiviral activity against RSV Long infected in BALB/c mouse assessed as inhibition of alveolar infiltrates accumulation at 50 mg/kg/day observed on day 6 after infection by H and E staining based microscopic analysis; assay type: functional, organism-based; conditions: time 6.0 day
[7] = Toxicity in BALB/c mouse infected with RSV-Long assessed as body weight loss at 50 mg/kg/day administered via gastric gavage once daily for 6 days; assay type: organism-based; conditions: in vivo, po, 144 h, time 6 day
[8] = system: Respiratory syncytial virus; test: Antiviral activity against RSV infected in BALB/c mouse assessed as downregulation of TNF-alpha expression in lung tissue infected with RSV at 50 mg/kg/day measured after 2 to 6 days post infection by RT-PCR analysis; assay type: functional, organism-based; conditions: time 2-6 day
[9] = system: Respiratory syncytial virus; test: Inhibition of RSV induced apoptosis in human HEp-2 cells assessed as reduction in PARP cleavage measured after 48 hrs by Western blot analysis; assay type: functional, organism-based
[10] = system: Respiratory syncytial virus; test: Antiviral activity against RSV infected in BALB/c mouse assessed as inhibition of viral replication by measuring RSV-M gene expression in lung after 2 to 6 days post infection by RT-PCR analysis; assay type: functional, organism-based; conditions: time 2-6 day
[11] = system: Respiratory syncytial virus; test: Antiviral activity against RSV infected in BALB/c mouse assessed as downregulation of iNOS expression in lung tissue infected with RSV at 50 mg/kg/day measured after 2 to 6 days post infection by RT-PCR analysis; assay type: functional, organism-based; conditions: time 2-6 day
[12] = system: Respiratory syncytial virus; test: Antiviral activity against RSV infected in BALB/c mouse assessed as downregulation of RIG-1 expression in lung tissue infected with RSV at 50 mg/kg/day measured after 2 days post infection by RT-PCR analysis; assay type: functional, organism-based; conditions: time 2.0 day
[13] = system: Respiratory syncytial virus; test: Antiviral activity against RSV infected in human HEp-2 cells assessed as downregulation of NF-kappaB expression at 25 uM treated 48 hpi and measured after 48 hrs by Western blot analysis; assay type: functional, organism-based
[14] = system: Respiratory syncytial virus; test: Inhibition of RSV induced apoptosis in human HEp-2 cells assessed as early apoptotic cells at 25 uM measured after 60 hrs by Annexin V-FITC/PI staining based flow cytometry analysis (reference value: 10.3%); assay type: functional; set-up: scale not given: the % may be the effect or the level left
[15] = system: Respiratory syncytial virus; test: Antiviral activity against RSV infected in BALB/c mouse assessed as downregulation of IRF3 expression in lung tissue infected with RSV at 50 mg/kg/day measured after 2 to 4 days post infection by RT-PCR analysis; assay type: functional, organism-based; conditions: time 2-4 day
[16] = system: Respiratory syncytial virus; test: Antiviral activity against RSV infected in BALB/c mouse assessed as downregulation of TLR3 expression in lung tissue infected with RSV at 50 mg/kg/day measured after 2 to 6 days post infection by RT-PCR analysis; assay type: functional, organism-based; conditions: time 2-6 day
[17] = system: Respiratory syncytial virus; test: Inhibition of RSV induced apoptosis in human HEp-2 cells assessed as late apoptotic cells at 25 uM measured after 60 hrs by Annexin V-FITC/PI staining based flow cytometry analysis (reference value: 20.2%); assay type: functional; set-up: scale not given: the % may be the effect or the level left
[18] = Inhibition of RSV induced ROS production in human HEp-2 cells assessed as reduction in accumulation of ROS-positive cells at 25 uM measured after 36 hrs by DCHF-DA staining based flow cytometry analysis (reference value: 82.2%); assay type: functional, Respiratory syncytial virus; set-up: scale not given: the % may be the effect or the level left
[19] = system: Respiratory syncytial virus; test: Antiviral activity against RSV infected in human HEp-2 cells assessed as downregulation of RIG-1 expression at 25 uM treated 48 hpi and measured after 48 hrs by Western blot analysis; assay type: functional, organism-based
[20] = system: Respiratory syncytial virus; test: Antiviral activity against RSV Long infected in BALB/c mouse assessed as improvement in lung congestion at 25 to 100 mg/kg/day observed on day 6 after infection by H and E staining based microscopic analysis; assay type: functional, organism-based; conditions: dose 25-100 mg/kg/day, time 6.0 day
[21] = system: Respiratory syncytial virus; test: Inhibition of RSV induced apoptosis in human HEp-2 cells assessed as reduction in cleaved caspase-9 expression measured after 48 hrs by Western blot analysis; assay type: functional, organism-based
[22] = system: Respiratory syncytial virus; test: Antiviral activity against RSV infected in BALB/c mouse assessed as downregulation of IL-8 expression in lung tissue infected with RSV at 50 mg/kg/day measured after 2 to 6 days post infection by RT-PCR analysis; assay type: functional, organism-based; conditions: time 2-6 day
[23] = system: Respiratory syncytial virus; test: Antiviral activity against RSV Long infected in BALB/c mouse assessed as reduction in lung tissue damage by measuring lung index at 50 mg/kg/day measured after 4 to 6 days of virus infection; assay type: functional, organism-based; conditions: time 4-6 day
[24] = system: Respiratory syncytial virus; test: Inhibition of RSV induced apoptosis in human HEp-2 cells assessed as reduction in cleaved caspase-7 expression measured after 48 hrs by Western blot analysis; assay type: functional, organism-based
[25] = system: Respiratory syncytial virus; test: Inhibition of RSV induced apoptosis in human HEp-2 cells assessed as reduction in cleaved caspase-3 expression measured after 60 hrs by Western blot analysis; assay type: functional, organism-based

## Cc1c(Br)cc2c(nc3n2[C@H]2OC[C@@H](O)[C@H]2OC3)c1Br
[1]
  CC50 at 60 h: 34.3 µM

## O[C@@H]1CO[C@H]2[C@@H]1OCc1nc3cc(F)c(F)cc3n12
[2]
  EC50: > 400 µM
[1]
  CC50 at 60 h: 512 µM

## Cc1c(Br)cc2c(nc3n2[C@H]2OC[C@@H](OS(C)(=O)=O)[C@H]2OC3)c1Br
[1]
  CC50 at 60 h: 15.6 µM

## Cc1c(Br)cc2nc3n(c2c1Br)[C@H]1OC[C@@H](OCc2ccccc2)[C@H]1OC3
[2]
  EC50: 44.5 µM
[3]
  Activity: Active
[4]
  selectivity ratio: 2.59
[1]
  CC50 at 60 h: 115 µM

## Cc1c(Br)cc2c(nc3n2[C@H]2OC[C@@H](OCc4ccccc4)[C@H]2OC3)c1Br
[1]
  CC50 at 60 h: 25.6 µM

## Cc1cc2nc3n(c2cc1C)C[C@@H]([C@H](O)CO)OC3
[1]
  CC50 at 60 h: 574 µM

## Cc1ccc(S(=O)(=O)O[C@@H]2CO[C@H]3[C@@H]2OCc2nc4cc(Br)c(Br)cc4n23)cc1
[2]
  EC50: 64.7 µM
[4]
  selectivity ratio: 1.35
[1]
  CC50 at 60 h: 87.5 µM

## Cc1c(Br)cc2nc3n(c2c1Br)[C@H]1OC[C@@H](OS(C)(=O)=O)[C@H]1OC3
[2]
  EC50: 5.98 µM
[4]
  selectivity ratio: 3.96
[1]
  CC50 at 60 h: 23.7 µM

## CS(=O)(=O)O[C@@H]1CO[C@H]2[C@@H]1OCc1nc3cc(Br)c(Br)cc3n12
[2]
  EC50: 87.9 µM
[4]
  selectivity ratio: 1.13
[1]
  CC50 at 60 h: 99.5 µM

## COc1ccc2c(c1)nc1n2[C@H]2OC[C@@H](O)[C@H]2OC1
[1]
  CC50 at 60 h: > 800 µM

## COc1ccc2c(c1)nc1n2C[C@@H]([C@H](O)CO)OC1
[1]
  CC50 at 60 h: 366 µM

## Cc1c(Br)cc2nc3n(c2c1Br)[C@H]1OC[C@H](N=[N+]=[N-])[C@H]1OC3
[1]
  CC50 at 60 h: 21.4 µM

## O[C@@H]1CO[C@H]2[C@@H]1OCc1nc3ccccc3n12
[1]
  CC50 at 60 h: 564 µM

## COc1c(Br)cc2c(nc3n2[C@H]2OC[C@@H](O)[C@H]2OC3)c1Br
[1]
  CC50 at 60 h: 259 µM

## COc1c(Cl)cc2c(nc3n2[C@H]2OC[C@@H](O)[C@H]2OC3)c1Cl
[1]
  CC50 at 60 h: 411 µM

## NC(=O)c1ncn([C@@H]2O[C@H](CO)[C@@H](O)[C@H]2O)n1 [RIBAVIRIN]
[2]
  EC50: 18.5 µM
[5]
  Activity: Active
[6]
  Activity: Active
[7]
  Activity: Toxic
[3]
  Activity: Active
[8]
  Activity: Active
[9]
  inhibition: Active
[10]
  Activity: Active
[4]
  selectivity ratio: 22.6
[1]
  CC50 at 60 h: 418 µM
[11]
  Activity: Active
[12]
  Activity: inactive
[13]
  Activity: Active
[14]
  Activity: 0.3%
[15]
  Activity: Active
[16]
  Activity: Active
[17]
  Activity: 7.6%
[18]
  Activity: 62.7%
[19]
  Activity: Active
[20]
  Activity: Active
[21]
  inhibition: Active
[22]
  Activity: Active
[23]
  Activity: Active
[24]
  inhibition: Active
[25]
  inhibition: Active

## O[C@@H]1CO[C@H]2[C@@H]1OCc1nc3cc(Cl)c(Cl)cc3n12
[1]
  CC50 at 60 h: 238 µM

## Cc1ccc(S(=O)(=O)O[C@@H]2CO[C@H]3[C@@H]2OCc2nc4c(Br)c(C)c(Br)cc4n23)cc1
[2]
  EC50: 1.57 µM
[4]
  selectivity ratio: 5.68
[1]
  CC50 at 60 h: 8.94 µM

## OC[C@@H](O)[C@@H]1Cn2c(nc3ccccc32)CO1
[1]
  CC50 at 60 h: > 800 µM

## O[C@@H]1CO[C@H]2[C@@H]1OCc1nc3cc(Br)c(Br)cc3n12
[2]
  EC50: 31.9 µM
[4]
  selectivity ratio: 5.67
[1]
  CC50 at 60 h: 181 µM

## Cc1ccc(S(=O)(=O)O[C@@H]2CO[C@H]3[C@@H]2OCc2nc4cc(Br)c(C)c(Br)c4n23)cc1
[2]
  EC50: 8.28 µM
[4]
  selectivity ratio: 10.7
[1]
  CC50 at 60 h: 88.6 µM

## OC[C@@H](O)[C@@H]1Cn2c(nc3cc(F)c(F)cc32)CO1
[2]
  EC50: 65.2 µM
[4]
  selectivity ratio: 10
[1]
  CC50 at 60 h: 653 µM

## Cc1c(Br)cc2c(nc3n2[C@H]2OC[C@H](N=[N+]=[N-])[C@H]2OC3)c1Br
[2]
  EC50: 13 µM
[4]
  selectivity ratio: 2.54
[1]
  CC50 at 60 h: 33.1 µM

## [N-]=[N+]=N[C@H]1CO[C@H]2[C@@H]1OCc1nc3cc(Br)c(Br)cc3n12
[1]
  CC50 at 60 h: 77.4 µM

## COc1ccc2c(nc3n2[C@H]2OC[C@@H](O)[C@H]2OC3)c1[N+](=O)[O-]
[1]
  CC50 at 60 h: 468 µM

## Cc1cc2nc3n(c2cc1C)[C@H]1OC[C@@H](O)[C@H]1OC3
[1]
  CC50 at 60 h: 492 µM

## COc1ccc2c(nc3n2[C@H]2OC[C@@H](O)[C@H]2OC3)c1N
[2]
  EC50: 11.3 µM
[4]
  selectivity ratio: 9.66
[1]
  CC50 at 60 h: 109 µM

## O[C@@H]1CO[C@H]2[C@@H]1OCc1nc3cc(Br)cc(Cl)c3n12
[2]
  EC50: 86.2 µM
[1]
  CC50 at 60 h: > 800 µM
